Source: patent US20230382920A1, “SHMT Inhibitors” (The Trustees of Princeton University, priority 2020, published 2023)

test system: not listed separately; experiment: Mouse liver microsome assay (metabolic stability); assay type: in vitro ADME; conditions: mouse liver microsomes, in vitro half-life
Protocol: Example 6. Mouse Liver Microsome Assay
Metabolic stability of several compounds in mouse liver microsomes was tested. Briefly, a master solution was prepared according to Table 31.
Two separate experiments were performed: an experiment with cofactors and an experiment without cofactors. In the experiment with cofactors 40 μL of 10 mM NADPH and 40 μL of 20 mM UDPGA were added to the incubations. The final concentrations of microsomes, NADPH and UDPGA were 0.5 mg/mL, 1 mM and 2 mM, respectively. In the experiment without cofactors 10 μL of 20 mg/mL liver microsomes and 80 μL of ultra-pure H2O were added to the incubations. The final concentration of microsomes was 0.5 mg/mL. The mixture was pre-warmed at 37° C. for 5 minutes.
The reaction was started with the addition of 4 μL of 200 μM control compound or test compound solutions. Verapamil was used as positive control in this study. The final concentration of test compound was 2 μM and the final concentration of control compound was 1 μM. The incubation solution was incubated in water bath at 37° C.
Aliquots of 50 μL were taken from the reaction solution at 0.5, 5, 15, 30, 45 and 60 minutes. The reaction was stopped by the addition of five volumes of cold acetonitrile with IS (100 nM alprazolam, 200 nM caffeine and 100 nM tolbutamide). Samples were centrifuged at 3,220 g for 40 minutes. Aliquot of 100 μL of the supernatant was mixed with 100 μL of ultra-pure H2O and then subject to LC-MS/MS analysis.
All calculations were carried out using Microsoft Excel. Peak areas were determined from extracted ion chromatograms. The slope value, k, was determined by linear regression of the natural logarithm of the remaining percentage of the parent drug versus incubation time curve. The in vitro half-life (in vitro t½) was determined from the slope value:
Conversion of the in vitro t1/2(min) into the in vitro intrinsic clearance (in vitro CLint, in μL/min/mg protein) was done using the following equation (mean of duplicate determinations): […]

Row | Compound | half-life at 2 µM
1 | Cc1n[nH]c2c1C(c1cc(C#C[C@H]3C[C@H](C(C)(C)O)C3)cc(CO)c1)(C(C)C)C(C#N)=C(N)O2 (some centres unmarked) [KDG-0258] | < 5 min
2 | Cc1n[nH]c2c1C(c1cc(C#CC3(C)CN(C(=O)OC(C)(C)C)C3)cc(CO)c1)(C(C)C)C(C#N)=C(N)O2 (centres unmarked) [KDG-0300] | 5 to 10 min
3 | Cc1n[nH]c2c1C(c1cc(C#C[C@H]3C[C@H](C(=O)OC(C)(C)C)C3)cc(CO)c1)(C(C)C)C(C#N)=C(N)O2 (some centres unmarked) [KDG-0393] | < 5 min

same assay, conditions: mouse liver microsomes, in vitro intrinsic clearance; read-out: Relative Clint

Row | Compound | microsomal CLint at 2 µM
4 | Cc1n[nH]c2c1C(c1cc(C#C[C@H]3C[C@H](C(C)(C)O)C3)cc(CO)c1)(C(C)C)C(C#N)=C(N)O2 (some centres unmarked) [KDG-0258] | > 250 µL/min/mg
5 | Cc1n[nH]c2c1C(c1cc(C#CC3(C)CN(C(=O)OC(C)(C)C)C3)cc(CO)c1)(C(C)C)C(C#N)=C(N)O2 (centres unmarked) [KDG-0300] | > 250 µL/min/mg

test system: HCT116; experiment: HCT116 growth inhibition assay; assay type: cell-based; conditions: without formate
Protocol: Example 5. HCT116 Growth Inhibition and Formate Rescue Assays
3,000 Cells were plated in each well of a 96-well plate with 80 μL of DMEM media supplemented with 10% dFBS, and incubated for 24 hours. Drugs with or without sodium formate (1 mM) were then added to each well to a final volume of 100 μL. Cell growth was measured as fluorescence intensity by resazurin after four days. In short, resazurin was added to each well to a final concentration of 10 μg·mL^−1. After incubation for one hour, fluorescence was measured by a Synergy HT plate reader (BioTek Instruments).

Row | Compound | IC50
6 | Cc1n[nH]c2c1C(c1cc(C#C[C@H]3C[C@@H](CO)C3)cc(C(C)(C)O)c1)(C(C)C)C(C#N)=C(N)O2 (some centres unmarked) [KDG-0260-100] | D″
7 | Cc1n[nH]c2c1C(c1cc(C#C[C@H]3C[C@H](C(C)(C)O)C3)cc(C(C)(C)O)c1)(C(C)C)C(C#N)=C(N)O2 (some centres unmarked) [KDG-0261] | C″
8 | Cc1n[nH]c2c1C(c1cc(C#C[C@H]3C[C@@H](COC(N)=O)C3)cc(C(C)(C)O)c1)(C(C)C)C(C#N)=C(N)O2 (some centres unmarked) [KDG-0262-100] | C″
9 | CC(=O)OCC1CC(C#Cc2cc(CO)cc(C3(C(C)C)C(C#N)=C(N)Oc4[nH]nc(C)c43)c2)C1 (centres unmarked) [KDG-0266] | B″
10 | CC(=O)O[C@]1(C)C[C@H](C#Cc2cc(CO)cc(C3(C(C)C)C(C#N)=C(N)Oc4[nH]nc(C)c43)c2)C1 (some centres unmarked) [KDG-0269] | B″
11 | Cc1n[nH]c2c1C(c1cc(C#CC3CN(C(=O)OC(C)(C)C)C3)cc(CO)c1)(C(C)C)C(C#N)=C(N)O2 (centres unmarked) [KDG-0271-0-pk1] | A″
12 | Cc1n[nH]c2c1C(c1cc(C#CC3CN(C(=O)OC(C)(C)C)C3)cc(CO)c1)(C(C)C)C(C#N)=C(N)O2 (centres unmarked) [KDG-0271-0-pk2] | D″
13 | CC(=O)OCc1cc(C#CC2CN(C(=O)OC(C)(C)C)C2)cc(C2(C(C)C)C(C#N)=C(N)Oc3[nH]nc(C)c32)c1 (centres unmarked) [KDG-0284] | B″
14 | Cc1n[nH]c2c1C(c1cc(C#CC3CCN(C(=O)OC(C)(C)C)C3)cc(CO)c1)(C(C)C)C(C#N)=C(N)O2 (centres unmarked) [KDG-0287] | B″
15 | Cc1n[nH]c2c1C(c1cc(C#CC3CCCN(C(=O)OC(C)(C)C)C3)cc(CO)c1)(C(C)C)C(C#N)=C(N)O2 (centres unmarked) [KDG-0288] | C″
16 | Cc1n[nH]c2c1C(c1cc(C#CC3CN(C(=O)OC(C)(C)C)C3)cc(COC(=O)C(C)C)c1)(C(C)C)C(C#N)=C(N)O2 (centres unmarked) [KDG-0293] | A″
17 | Cc1n[nH]c2c1C(c1cc(C#CC3CN(C(=O)OC(C)(O)O)C3)cc(COC(=O)C(N)C(C)O)c1)(C(C)C)C(C#N)=C(N)O2 (centres unmarked) [KDG-0294] | B″
18 | Cc1n[nH]c2c1C(c1cc(C#CC3(C)CCN(C(=O)OC(C)(C)C)C3)cc(CO)c1)(C(C)C)C(C#N)=C(N)O2 (centres unmarked) [KDG-0304] | B″
19 | COC(=O)N1CCC(C)(C#Cc2cc(CO)cc(C3(C(C)C)C(C#N)=C(N)Oc4[nH]nc(C)c43)c2)CC1 (centres unmarked) [KDG-0308] | B″
20 | Cc1n[nH]c2c1C(c1cc(C#C[C@H]3C[C@@H](NC(=O)OC(C)(C)C)C3)cc(CF)c1)(C(C)C)C(C#N)=C(N)O2 (some centres unmarked) [KDG-0383] | B″
21 | Cc1n[nH]c2c1C(c1cc(C#C[C@H]3C[C@H](NC(=O)OC(C)(C)C)C3)cc(CO)c1)(C(C)C)C(C#N)=C(N)O2 (some centres unmarked) [KDG-0385, tert-butyl N-[(1r,3r)-3-[2-(3-[6-amino-5-cyano-4-isopropyl-3-methyl-1H-pyrano[2,3-c]pyrazol-4-yl]-5-(hydroxymethyl)phenyl)ethynyl]cyclobutyl]carbamate] | B″
22 | Cc1n[nH]c2c1C(c1cc(C#C[C@H]3C[C@](C)(NC(=O)OC(C)(C)C)C3)cc(CO)c1)(C(C)C)C(C#N)=C(N)O2 (some centres unmarked) [KDG-0387] | B″

Row | Compound | IC50
23 | Cc1n[nH]c2c1C(c1cc(C#C[C@H]3C[C@H](NC(=O)OC(C)(C)C)C3)cc(CF)c1)(C(C)C)C(C#N)=C(N)O2 (some centres unmarked) [KDG-0390] | B″
24 | Cc1n[nH]c2c1C(c1cc(C#C[C@H]3C[C@@H](CNC(=O)OC(C)(C)C)C3)cc(CO)c1)(C(C)C)C(C#N)=C(N)O2 (some centres unmarked) [KDG-0395-100] | B″
25 | Cc1n[nH]c2c1C(c1cc(C#C[C@H]3C[C@H](CNC(=O)OC(C)(C)C)C3)cc(CO)c1)(C(C)C)C(C#N)=C(N)O2 (some centres unmarked) [KDG-0395] | B″
26 | CCC(C)(C)OC(=O)N1CC(C#Cc2cc(CO)cc(C3(C(C)C)C(C#N)=C(N)Oc4[nH]nc(C)c43)c2)C1 (centres unmarked) [KDG-0411] | B″
27 | Cc1n[nH]c2c1C(c1cc(C#CC3CN(C(=O)OC(C)C)C3)cc(CO)c1)(C(C)C)C(C#N)=C(N)O2 (centres unmarked) [KDG-0416] | A″
28 | COCC(C)(C)OC(=O)N1CC(C#Cc2cc(CO)cc(C3(C(C)C)C(C#N)=C(N)Oc4[nH]nc(C)c43)c2)C1 (centres unmarked) [KDG-0418] | B″
29 | Cc1n[nH]c2c1C(c1cc(C#C[C@H]3C[C@@H](NC(=O)OC(C)C)C3)cc(CO)c1)(C(C)C)C(C#N)=C(N)O2 (some centres unmarked) [KDG-0520] | A″
30 | Cc1n[nH]c2c1C(c1cc(C#C[C@H]3C[C@@H](NC(=O)OCc4ccccc4)C3)cc(CO)c1)(C(C)C)C(C#N)=C(N)O2 (some centres unmarked) [KDG-0521] | A″
31 | Cc1n[nH]c2c1C(c1cc(C#C[C@H]3C[C@@H](NC(=O)NC(C)(C)C)C3)cc(CO)c1)(C(C)C)C(C#N)=C(N)O2 (some centres unmarked) [KDG-0523] | B″
32 | Cc1n[nH]c2c1C(c1cc(C#C[C@H]3C[C@@H](NC(=O)OCC(C)(C)C)C3)cc(CO)c1)(C(C)C)C(C#N)=C(N)O2 (some centres unmarked) [KDG-0524] | B″
33 | Cc1n[nH]c2c1C(c1cc(C#C[C@H]3C[C@@H](NC(=O)CC(C)(C)C)C3)cc(CO)c1)(C(C)C)C(C#N)=C(N)O2 (some centres unmarked) [KDG-0527] | B″
34 | Cc1n[nH]c2c1C(c1cc(C#C[C@H]3C[C@@H](NCC(=O)N(C)C)C3)cc(CO)c1)(C(C)C)C(C#N)=C(N)O2 (some centres unmarked) [KDG-0530] | D″
35 | Cc1n[nH]c2c1C(c1cc(C#CC3CN(C(=O)CN(C)C)C3)cc(CO)c1)(C(C)C)C(C#N)=C(N)O2 (centres unmarked) [KDG-0547] | D″
36 | Cc1n[nH]c2c1C(c1cc(C#C[C@H]3C[C@@H](NC(=O)CN(C)C)C3)cc(CO)c1)(C(C)C)C(C#N)=C(N)O2 (some centres unmarked) [KDG-0554] | C″
37 | Cc1n[nH]c2c1C(c1cc(C#CC34CC(C(=O)N(C)C)(C3)C4)cc(CO)c1)(C(C)C)C(C#N)=C(N)O2 (centres unmarked) [KDG-0558] | C″
38 | Cc1n[nH]c2c1C(c1cc(C#C[C@H]3C[C@@H](NC(=O)OC(C)(C)C)C3)cc(C(F)(F)F)c1)(C(C)C)C(C#N)=C(N)O2 (some centres unmarked) [KDG-0574] | B″

Next, values leading:

Row | IC50 | Compound
39 | B″ | Cc1n[nH]c2c1C(c1cc(C#C[C@H]3C[C@H](C(C)(C)O)C3)cc(CO)c1)(C(C)C)C(C#N)=C(N)O2 (some centres unmarked) [KDG-0258-100]
40 | A″ | Cc1n[nH]c2c1C(c1cc(C#C[C@H]3C[C@H](C(C)(C)O)C3)cc(CO)c1)(C(C)C)C(C#N)=C(N)O2 (some centres unmarked) [KDG-0258]
41 | B″ | Cc1n[nH]c2c1C(c1cc(C#C[C@H]3C[C@@H](C(=O)N(C)C)C3)cc(CO)c1)(C(C)C)C(C#N)=C(N)O2 (some centres unmarked) [KDG-0265-100]
42 | C″ | Cc1n[nH]c2c1C(c1cc(C#C[C@H]3C[C@@](C)(O)C3)cc(CO)c1)(C(C)C)C(C#N)=C(N)O2 (some centres unmarked) [KDG-0268]
43 | B″ | Cc1n[nH]c2c1C(c1cc(C#CC3CCC(=O)CC3)cc(CO)c1)(C(C)C)C(C#N)=C(N)O2 (centres unmarked) [KDG-0270-100]
44 | D″ | Cc1n[nH]c2c1C(c1cc(C#CC3CNC3)cc(CO)c1)(C(C)C)C(C#N)=C(N)O2 (centres unmarked) [KDG-0271-200]
45 | A″ | CC(=O)O[C@]1(C)CC[C@H](C#Cc2cc(CO)cc(C3(C(C)C)C(C#N)=C(N)Oc4[nH]nc(C)c43)c2)CC1 (some centres unmarked) [KDG-0272]
46 | B″ | COC(=O)N1CC(C#Cc2cc(CO)cc(C3(C(C)C)C(C#N)=C(N)Oc4[nH]nc(C)c43)c2)C1 (centres unmarked) [KDG-0281]
47 | C″ | Cc1nnc(N[C@H]2CC[C@@H](C#Cc3cc(CO)cc(C4(C(C)C)C(C#N)=C(N)Oc5[nH]nc(C)c54)c3)CC2)o1 (some centres unmarked) [KDG-0516]
48 | C″ | Cc1nnc(N[C@H]2CC[C@H](C#Cc3cc(CO)cc(C4(C(C)C)C(C#N)=C(N)Oc5[nH]nc(C)c54)c3)CC2)o1 (some centres unmarked) [KDG-0518]
49 | B″ | COC(=O)N[C@H]1C[C@H](C#Cc2cc(CO)cc(C3(C(C)C)C(C#N)=C(N)Oc4[nH]nc(C)c43)c2)C1 (some centres unmarked) [KDG-0522-100]
50 | B″ | COC(=O)N[C@H]1C[C@@H](C#Cc2cc(CO)cc(C3(C(C)C)C(C#N)=C(N)Oc4[nH]nc(C)c43)c2)C1 (some centres unmarked) [KDG-0522]
51 | B″ | Cc1n[nH]c2c1C(c1cc(C#C[C@H]3C[C@@H](NC(=O)C(C)(C)C)C3)cc(CO)c1)(C(C)C)C(C#N)=C(N)O2 (some centres unmarked) [KDG-0526]
52 | C″ | Cc1n[nH]c2c1C(c1cc(C#C[C@H]3C[C@H](NC(=O)CN(C)C)C3)cc(CO)c1)(C(C)C)C(C#N)=C(N)O2 (some centres unmarked) [KDG-0555]
53 | B″ | Cc1nnc(C23CC(C#Cc4cc(CO)cc(C5(C(C)C)C(C#N)=C(N)Oc6[nH]nc(C)c65)c4)(C2)C3)o1 (centres unmarked) [KDG-0573]
